Measured values as given in patent US20180244611A1, “Modulators of the Cystic Fibrosis Transmembrane Conductance Regulator Protein and Methods of Use” (AbbVie S.à.r.l., priority 2017, published 2018).

Assays:
[1] = biological target: T1, F508delCFTR (Homo sapiens, UniProt P13569, DEL508-508); assay: Cell Surface Expression-Horse Radish Peroxidase (CSE-HRP) assay, test compound with co-corrector; assay type: cell-based; settings: for Maximum % activity (with co-corrector): maximum at any tested concentration;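 on Maximum % activity (with co-corrector): percent of 2 µM positive control corrector over DMSO; co-corrector is that same compound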
T1 construct: expressed in transfected cells; host or cells: CFBE41o- human lung-derived epithelial cells (CFBE41o-F508delCFTR-HRP), doxycycline-inducible
Outline: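 Surface-expression read-out: luminol luminescence from an HRP tag in the fourth exofacial loop of F508delCFTR, in doxycycline-induced (0.5 μg/mL, 72 h) CFBE41o- cells. Compound plus 2 μM co-corrector added for 18-24 h at 33° C., 8-point 3-fold series up to 20 μM. EC50 from a sigmoidal fit with variable Hill slope, normalised to positive control, triplicate plates.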

[2] = biological target: T1, F508delCFTR; assay: Cell Surface Expression-Horse Radish Peroxidase (CSE-HRP) assay, test compound without co-corrector; assay type: cell-based; settings: for Emax: maximum at any tested concentration, without co-corrector; for EC50: test compound without co-corrector;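 on Emax: percent of on-plate 2 µM positive control corrector response over DMSO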
Outline: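 Compound without co-corrector was tested at eight 3-fold concentrations, top 20 μM, for 18-24 h at 33° C on doxycycline-induced (0.5 μg/mL, 72 h) CFBE41o- F508delCFTR-HRP cells. After DPBS washes, luminol luminescence gave % activity relative to on-plate positive control minus DMSO; EC50 came from triplicate-plate sigmoidal fitting.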

[3] = normalized to positive control, with 2 μM co-corrector
[4] = CSE-HRP assay, test compound with 2 μM co-corrector
[5] = normalized to on-plate positive control, with 2 μM co-corrector
[6] = normalized to on-plate positive control

T1 sequence (P13569 with tags, fused parts or gaps DEL508-508): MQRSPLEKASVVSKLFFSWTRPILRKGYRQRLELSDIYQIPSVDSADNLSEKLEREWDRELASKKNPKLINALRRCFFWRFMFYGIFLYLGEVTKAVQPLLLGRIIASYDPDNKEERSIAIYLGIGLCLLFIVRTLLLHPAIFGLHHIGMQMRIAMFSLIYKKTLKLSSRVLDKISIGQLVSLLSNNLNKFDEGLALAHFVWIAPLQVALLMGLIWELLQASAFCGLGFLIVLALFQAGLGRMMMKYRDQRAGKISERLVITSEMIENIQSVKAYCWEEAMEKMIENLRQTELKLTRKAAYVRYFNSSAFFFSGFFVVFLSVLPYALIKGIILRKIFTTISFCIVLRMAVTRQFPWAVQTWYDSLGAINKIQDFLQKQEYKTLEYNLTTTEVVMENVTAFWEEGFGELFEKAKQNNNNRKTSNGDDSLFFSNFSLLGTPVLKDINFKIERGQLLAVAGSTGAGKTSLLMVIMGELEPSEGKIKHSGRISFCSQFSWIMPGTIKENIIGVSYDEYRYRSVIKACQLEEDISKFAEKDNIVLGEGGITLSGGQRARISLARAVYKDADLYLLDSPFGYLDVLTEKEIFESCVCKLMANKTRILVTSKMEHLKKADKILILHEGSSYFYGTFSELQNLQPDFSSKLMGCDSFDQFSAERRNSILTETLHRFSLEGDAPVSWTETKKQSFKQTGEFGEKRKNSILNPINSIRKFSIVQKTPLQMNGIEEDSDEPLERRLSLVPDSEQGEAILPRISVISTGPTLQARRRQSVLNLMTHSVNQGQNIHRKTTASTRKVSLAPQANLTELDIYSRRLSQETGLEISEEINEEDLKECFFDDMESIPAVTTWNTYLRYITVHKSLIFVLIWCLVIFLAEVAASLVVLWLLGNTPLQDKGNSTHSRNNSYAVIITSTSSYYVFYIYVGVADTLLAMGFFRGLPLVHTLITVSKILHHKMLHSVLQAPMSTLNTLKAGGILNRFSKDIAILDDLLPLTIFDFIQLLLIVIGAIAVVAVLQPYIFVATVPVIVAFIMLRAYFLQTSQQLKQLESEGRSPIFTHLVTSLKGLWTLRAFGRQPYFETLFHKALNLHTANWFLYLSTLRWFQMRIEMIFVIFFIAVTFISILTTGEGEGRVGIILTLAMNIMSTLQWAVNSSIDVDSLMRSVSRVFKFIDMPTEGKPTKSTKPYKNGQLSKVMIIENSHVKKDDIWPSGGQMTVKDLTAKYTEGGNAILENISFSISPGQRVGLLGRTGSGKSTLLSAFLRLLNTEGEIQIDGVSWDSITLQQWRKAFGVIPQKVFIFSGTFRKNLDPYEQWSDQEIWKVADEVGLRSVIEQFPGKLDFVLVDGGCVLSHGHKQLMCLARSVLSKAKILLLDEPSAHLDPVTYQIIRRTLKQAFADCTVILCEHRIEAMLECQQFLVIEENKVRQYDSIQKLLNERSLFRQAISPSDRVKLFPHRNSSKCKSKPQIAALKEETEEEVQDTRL

Row | Maximum % activity (with co-corrector) [1, 3] | EC50 ([1]; with 2 μM co-corrector) [µM] | Emax ([2]; normalized to positive control) [%] | EC50 [2] [µM] | EC50 [1, 4] [µM] | Maximum % activity (with co-corrector) [1, 5] | EC50 ([2]; CSE-HRP assay) [µM] | Emax [2, 6] [%] | Compound
1 | ++ (≥150 and <350) | 3 to 10 | 50 to 150 | 3 to 10 |  |  |  |  | O=C(NS(=O)(=O)c1ccccc1Cl)C1CCc2c(Cl)cccc21 (centres unmarked) [II-6]
2 |  |  |  |  | < 3 | ++ (≥150 and <350) | < 3 | 50 to 150 | COc1cccc2c1C(C(=O)NS(=O)(=O)c1cccc3ccccc13)CC2 (centres unmarked) [III-182]
3 | ++ (≥150 and <350) | 3 to 10 | < 50 | 3 to 10 |  |  |  |  | Cc1ccccc1S(=O)(=O)NC(=O)C1CCc2c(C3=CCOCC3)cccc21 (centres unmarked) [II-34]
4 | +++ (≥350) | < 3 | ≥ 150 | 3 to 10 |  |  |  |  | COc1ccc(OC)c2c1CCCC2C(=O)NS(=O)(=O)c1cccc2ccccc12 (centres unmarked) [Example I-73, 5,8-dimethoxy-N-(naphthalene-1-sulfonyl)-1,2,3,4-tetrahydronaphthalene-1-carboxamide]
5 | +++ (≥350) | < 3 | ≥ 150 | < 3 |  |  |  |  | COc1ncc(Br)c2c1[C@H](C(=O)NS(=O)(=O)c1cccc3ccccc13)CCC2 [Example I-116, (8R)-4-bromo-1-methoxy-N-(naphthalene-1-sulfonyl)-5,6,7,8-tetrahydroisoquinoline-8-carboxamide]
6 |  |  |  |  | < 3 | ++ (≥150 and <350) | 3 to 10 | 50 to 150 | COc1ccc(-c2ccc(C3CC3)nc2)c2c1C(C(=O)NS(=O)(=O)c1cccc3ccccc13)CCC2 (centres unmarked) [III-165]
7 | +++ (≥350) | < 3 | ≥ 150 | 3 to 10 |  |  |  |  | COc1ccc(Br)c2c1C(C(=O)NS(=O)(=O)c1cccc3ccccc13)CC2 (centres unmarked) [Example I-19, 4-bromo-7-methoxy-N-(naphthalene-1-sulfonyl)-2,3-dihydro-1H-indene-1-carboxamide]
8 | ++ (≥150 and <350) | 3 to 10 | 50 to 150 | 3 to 10 |  |  |  |  | Cc1ccccc1S(=O)(=O)NC(=O)C1CCc2c(C3CCC3)cccc21 (centres unmarked) [II-35]
9 | +++ (≥350) | < 3 | ≥ 150 | < 3 |  |  |  |  | COc1ccc(Br)c2c1[C@H](C(=O)NS(=O)(=O)c1cccc3ncccc13)CCC2 (single isomer, unassigned) [Example I-63]
10 | +++ (≥350) | 3 to 10 | 50 to 150 | 3 to 10 |  |  |  |  | O=C(NS(=O)(=O)c1cccc2ccccc12)C1CCCc2c(Cl)ccc(O)c21 (centres unmarked) [Example II-128, 5-chloro-8-hydroxy-N-(naphthalene-1-sulfonyl)-1,2,3,4-tetrahydronaphthalene-1-carboxamide]
11 | ++ (≥150 and <350) | 3 to 10 | < 50 | 3 to 10 |  |  |  |  | O=C(NS(=O)(=O)c1cccc2ccccc12)C1(CN2CCCC2)CCc2c(Cl)cccc21 (centres unmarked) [Example II-47, 4-chloro-N-(naphthalene-1-sulfonyl)-1-[(pyrrolidin-1-yl)methyl]-2,3-dihydro-1H-indene-1-carboxamide]
12 | +++ (≥350) | < 3 | ≥ 150 | 3 to 10 |  |  |  |  | COc1ccc(C2CCC2)c2c1C(C(=O)NS(=O)(=O)c1cccn3nccc13)CC2 (centres unmarked) [Example I-135, 4-cyclobutyl-7-methoxy-N-(pyrazolo[1,5-a]pyridine-4-sulfonyl)-2,3-dihydro-1H-indene-1-carboxamide]
13 | +++ (≥350) | < 3 | ≥ 150 | < 3 |  |  |  |  | O=C(NS(=O)(=O)c1cccc2ccccc12)C1CCCc2cccc(C3CCC3)c21 (centres unmarked) [Example I-82, 8-cyclobutyl-N-(naphthalene-1-sulfonyl)-1,2,3,4-tetrahydronaphthalene-1-carboxamide]
14 | +++ (≥350) | 3 to 10 | ≥ 150 | 3 to 10 |  |  |  |  | COc1ccc(C2CCC2)c2c1C(C(=O)NS(=O)(=O)c1cccc3c1NCCC3)CC2 (centres unmarked) [Example I-119, 4-cyclobutyl-7-methoxy-N-(1,2,3,4-tetrahydroquinoline-8-sulfonyl)-2,3-dihydro-1H-indene-1-carboxamide]
15 | +++ (≥350) | < 3 | ≥ 150 | < 3 |  |  |  |  | COc1ccc(Br)c2c1CCCC2C(=O)NS(=O)(=O)c1cccc2ccccc12 (centres unmarked) [Example I-15, 8-bromo-5-methoxy-N-(naphthalene-1-sulfonyl)-1,2,3,4-tetrahydronaphthalene-1-carboxamide]

The remaining lines, values behind:

Row | Compound | Maximum % activity (with co-corrector) [1, 3] | EC50 ([1]; with 2 μM co-corrector) [µM] | Emax ([2]; normalized to positive control) [%] | EC50 [2] [µM] | EC50 [1, 4] [µM] | Maximum % activity (with co-corrector) [1, 5] | EC50 ([2]; CSE-HRP assay) [µM] | Emax [2, 6] [%]
16 | CCC1(C(=O)NS(=O)(=O)c2ccccc2OC(F)(F)F)CCc2c(Cl)cccc21 (centres unmarked) [II-60] | + (<150) | ≥ 10 | < 50 | ≥ 10 |  |  |  | 
17 | CC1(C(=O)NS(=O)(=O)Cc2ccccc2)CCc2c(Cl)cccc21 (centres unmarked) [III-3] | + (<150) | ≥ 10 | < 50 | ≥ 10 |  |  |  | 
18 | CCC1(C(=O)NS(=O)(=O)c2cccc(N3CC(F)(F)C3)c2C)CCc2c(Cl)cccc21 (centres unmarked) [II-126] | +++ (≥350) | 3 to 10 | 50 to 150 | 3 to 10 |  |  |  | 
19 | CCC1(C(=O)NS(=O)(=O)c2ccccc2Cl)CCc2c(Cl)cccc21 (centres unmarked) [II-54] | ++ (≥150 and <350) | < 3 | < 50 | < 3 |  |  |  | 
20 | Cc1ccccc1S(=O)(=O)NC(=O)C1CCc2c(-c3cnn(C)c3)cccc21 (centres unmarked) [III-102] |  |  |  |  | ≥ 10 | + (<150) | ≥ 10 | < 50
21 | CCC1(C(=O)NS(=O)(=O)c2ncccc2C(=O)N(C)C)CCc2c(Cl)cccc21 (centres unmarked) [III-135] |  |  |  |  | ≥ 10 | + (<150) | ≥ 10 | < 50
22 | COc1cccc2c1CCC2C(=O)NS(=O)(=O)c1ccc(Cl)cc1[N+](=O)[O-] (centres unmarked) [III-33] | ++ (≥150 and <350) | < 3 | < 50 | ≥ 10 |  |  |  | 
23 | O=C(NS(=O)(=O)c1cccc2ccccc12)C1(Cc2ccccn2)CCc2c(Cl)cccc21 (centres unmarked) [III-147] |  |  |  |  | 3 to 10 | ++ (≥150 and <350) | 3 to 10 | < 50
24 | COc1cccc2c1CCC2C(=O)NS(=O)(=O)C1CCOCC1 (centres unmarked) [III-14] | + (<150) | ≥ 10 | < 50 | ≥ 10 |  |  |  | 
25 | CCCS(=O)(=O)NC(=O)C1CCc2c(Cl)cccc21 (centres unmarked) [III-6] | + (<150) | ≥ 10 | < 50 | ≥ 10 |  |  |  | 
26 | CCC1(C(=O)NS(=O)(=O)C2CCCCC2)CCc2c(Cl)cccc21 (centres unmarked) [III-136] |  |  |  |  | ≥ 10 | + (<150) | ≥ 10 | < 50
27 | Cc1ccccc1S(=O)(=O)NC(=O)C1CCc2c(-c3ccnc(F)c3)cccc21 (centres unmarked) [III-93] |  |  |  |  | 3 to 10 | ++ (≥150 and <350) | ≥ 10 | < 50
28 | COc1cccc2c1CCC2C(=O)NS(=O)(=O)c1cc(Cl)ccc1F (centres unmarked) [III-73] | + (<150) | ≥ 10 | < 50 | ≥ 10 |  |  |  | 
29 | COc1cccc2c1CCC2C(=O)NS(=O)(=O)c1cc(C)c(N)cc1Cl (centres unmarked) [III-38] | ++ (≥150 and <350) | 3 to 10 | < 50 | ≥ 10 |  |  |  | 
